{"source": "patent US20230014181A1", "about": "“CULTURE SYSTEM AND METHODS FOR IMPROVED MODELING OF NEUROLOGICAL CONDITIONS” (Genentech, Inc., priority 2021, published 2023)", "key": {"primary human astrocytes": {"test_system": "primary human astrocytes", "assay": "Astrocyte GFAP expression in response to soluble Aβ species", "assay_type": "cell-based", "conditions": "astrocytes cultured alone; 3DIV", "procedure": "Error bars+/−s.e.m. and n=4 wells; ANOVA ****P<0.0001, ***P<0.001, **P<0.01.\nAstrocytes were then validated. Briefly, primary human astrocytes were detached using Accumax (Innovative Cell Technologies) and seeded onto 384-well plates coated with 1:100 Geltrex™ (Thermofisher) solution for at least 1 hour in a 37° C. cell incubator. Cells were seeded at a density of 2,000 cells/well in Neuron Maintenance Medium (1× BrainPhys™ Basal (StemCell Technology), 1× B27 with Vitamin A, 1×N-2, 5 μg/mL cholesterol, 1 mM creatine, 10 nM β-estradiol, 200 nM ascorbic acid, 1 mM cAMP (Sigma-Aldrich), 20 ng/mL BDNF, 20 ng/mL GDNF, 1 μg/mL Laminin, 0.5 mM GlutaMAX™ (Thermofisher), 1 ng/mL TGF-β1, 1× normocin, 50 U/mL penicillin-streptomycin). Cells were placed in 37° C. cell incubator for 24 hours to allow for attachment. Aβ42 and antibody treatments were added as described in other Examples. Astrogliosis was validated was validated by immunostaining of the following markers: Guinea Pig anti GFAP (1:500), Rabbit anti EAAT1 (1:500), Rabbit anti vimentin (1:500), Rabbit ALDH1L1 (1:500)."}, "soluble Aβ42 species": {"test_system": "soluble Aβ42 species", "assay": "Anti-Aβ antibody co-treatment rescue of soluble Aβ42 species neurotoxicity in iPSC neurons", "assay_type": "cell-based, human", "method": "Error bars+/−s.e.m. and n=4 wells.\nTo investigate whether AD pathologies can be studied in a controlled, in vitro system of human neurons, cultured human iPSC-derived neurons were treated with synthetic Aβ42 oligomers, prepared by oligomerization of Aβ42 monomers at 4° C. following previously published protocols (FIG. 2A; following Stine et al., 2011). Briefly, AggreSure™ β-Amyloid (1-42), human monomers (Anaspec) were resuspended in DMSO followed by PBS to form a 100 μM solution. Aβ42 monomers were subsequently incubated at 4° C. for 24 hours, then frozen at −80° C. to stop the oligomerization process. Five to six lots of Aβ42 monomers were screened at time and assessed for neurotoxic and the degree of toxicity. About twenty lots for screened in the course of 4 years. For fluorescent Aβ42 oligomer experiments, Beta-Amyloid (1-42), HiLyte™ Fluor 555-labeled, Human (Anaspec) was used. […]\nSeveral additional tau phosphorylation sites observed in AD, S396/404, S217, S235, S400/T403/S404, and T181, were hyperphosphorylated when treated with Aβ42 oligomers (FIGS. 4V-4Z). […] Using this quantitative platform, the half-maximal inhibitory concentration (IC50) for anti-Aβ antibody rescue of MAP2, synapsin, and pTau induction was generated (FIG. 3R)."}}}
{"substance": "Crenezumab: anti-Aβ antibody", "values": [{"measurement": "GFAP upregulation by soluble Aβ species", "setting": "primary human astrocytes", "value": "blocked"}, {"measurement": "phospho-Tau p396-404 and p400-403-404 upregulation", "setting": "soluble Aβ42 species; NAG-NSC Line 2", "value": "blocked"}, {"measurement": "loss of dendrites (MAP2) and synapses (synapsin)", "setting": "soluble Aβ42 species; NAG-NSC Line 2 and primary astrocytes, 5 μM soluble Aβ species, 7 days", "value": "rescued"}]}
